Experimental data taken from patent publication US20190352297A1, “SELECTIVE AURORA A KINASE INHIBITORS” (UNIVERSITAT BERN, priority 2017, published 2019).

Target: T1, Aurora A (Trp277) (Homo sapiens, UniProt O14965)
T1 construct: human Aurora A kinase domain (residues 122-403 in the pET24-d vector); His-tag (cleaved yes); made in house; host or cells: E. coli BL21 (DE3) Rosetta
T1 sequence (O14965 122-403): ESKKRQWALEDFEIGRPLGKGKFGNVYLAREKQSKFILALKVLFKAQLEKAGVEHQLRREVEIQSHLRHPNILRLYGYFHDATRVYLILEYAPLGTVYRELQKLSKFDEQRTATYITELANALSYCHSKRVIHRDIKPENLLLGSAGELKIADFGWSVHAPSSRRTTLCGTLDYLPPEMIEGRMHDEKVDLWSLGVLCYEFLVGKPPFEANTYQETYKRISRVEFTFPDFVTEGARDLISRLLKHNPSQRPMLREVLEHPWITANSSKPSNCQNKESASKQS
Assay: Intrinsic tryptophan fluorescence
Format: binding
Description: Binding experiments were performed by mixing Aurora A (500 nM, 375 nM, and 150 nM for 77, 9, and 88, respectively) with varying concentrations (0-100 μM) of the different compounds in buffer (final DMSO concentration 1%), followed by incubation for 15 min at room temperature. Tryptophan fluorescence spectra were recorded at room temperature using an Infinite M1000 Pro plate reader (Tecan) and Corning 96 well half area, flat bottom, non-binding surface, black polystyrene plates. Excitation occurred at 284 nm (bandwidth ±5 nm) and emission at 340 nm (bandwidth ±10 nm). The gain was calculated from the well with the highest protein concentration. Each measurement was done in triplicate.

CCc1ccc(N=C2SC(=Cc3ccnc(Nc4ccc(C(=O)O)cn4)c3)C(=O)N2C)cc1 [Compound 9]
tryptophan fluorescence, environment of Trp277: perturbed the environment of Trp277
